From patent US4874780A, “Anticancer compounds” (Norsk Hydro a.s., priority 1987, dated 1989)
Read-outs that look alike come from different tables or passages of the source.

Key:
Stability in vitro = format: in vitro ADME
NHIK 3025 cells [1] = assay: Cell survival (colony formation) after 24 hr treatment; format: cell-based; conditions: Homo sapiens, NHIK3025, 24 h
Source text: (§1) Human cells of the established line NHIK 3025, originating from a cervical carcinoma in situ (Nordbye, K., and Oftebro, R. Exp. Cell Res., 58: 458, 1969), Oftebro, R., and Nordbye, K., Exp. Cell Res., 58: 459-460, 1969) were cultivated in Medium E2a (Puck, T.T. et al., J. Exp. Med., 106:145-165, 1957) supplemented with 20% human (prepared at the laboratory) and 10% horse serum (Grand Island Biological Co.). The cells are routinely grown as monolayers in tissue culture flasks.
(§2) The cells were kept in continuous exponential growth by frequent reculturing, i.e., every second and third day, and synchronized cell populations with a high degree of synchrony were obtained by repeated selection of mitotic cells (Pettersen, E. O. et al, Cell Tissue Kinet., 10: 511-522, 1977). During the synchronization procedure, the cells were kept in Medium E2a, and the whole experiment took place in a walk-in incubator at 37° C. Under growth conditions as used here, the NHIK 3025 cells have a medium cell-cycle time of ~18 hr, with medium G1, S1 and G2 durations of ~7, ~8, and ~2.5 hr, respectively.
For measurement of cell survival, appropriate numbers of cells were seeded in plastic Petri dishes (.phi.=5 cm). The number of cells seeded into each dish was adjusted such that the number of surviving cells would be approximately 150 per dish. While exponentially growing (asynchronous) cells were trypsinized before seeding, synchronized cells were seeded immediately after selection. After about 2 hr, the cells had attached to the bottom of the dishes, and the treatment was started by replacing the medium with medium containing the appropriate drug concentration. After the desired time of treatment, the drug-containing medium was removed, and fresh medium was added. The dishes were rinsed once with the same medium as was to be added on addition or removal of drug. After 10 to 12 days at 37° C. in a CO2 incubator, the cells were fixed in ethanol and stained with methylene blue before the colonies were counted.
The cytotoxic effect of benzaldehyde and of deuterobenzaldehyde-d1 was tested on asynchronous, exponentially growing NHIK 3025 cells by counting the number of cells able to form colonies after 24 hr treatment in Petri dishes. In Table 1 the results represent 2 different, independent experiments where the numbers give the mean fraction of surviving cells from 10 parallel dishes (± standard error).
Fraction of cells surviving 24 hr treatment with benzaldehyde or deuterobenzaldehyde - d1 in Petri dishes. (The values represent the mean±standard error from 10 different dishes.)

[2] = Concentration of BG or BG-d1 in blood samples after iv injection (HPLC); format: in vivo, male Wistar rats
Experimental: Measurement of concentration of 4,6-O-benzylidene-D-glucose (BG) or 4,6-O-deuterobenzylidene-d1 -D-glucose (BG-d1) in blood samples (Table 5).
(§3) Blood samples were taken from male Wistar rats immediately before and at several intervals after intravenous injection of BG or BG-d1. Blood serum was separated by centrifugation. Equal amounts of blood serum and HPLC-grade acetonitrile were mixed and centrifuged at 13,000 rpm (15,000×g) for 5 minutes. Samples were then analyzed for BG or BG-d1 content by High Performance Liquid Chromatography (HPLC). Samples were placed in an autosampler programmed for replicate injections of […] each onto a 4.6×250 mm LC18 HPLC column. The column was eluted with 45% aqueous methanol delivered at 1 ml/min. BG or BG-d1 were detected by using a spectrofluorometer set at excitation and emission wavelengths of 255 and 283 nm, respectively. The slit width used was 10 nm. Quantitation of the amount of BG or BG-d1 in serum samples was performed with an electronic integrator calibrated with standard solutions of BG or BG-d1 in the mobile phase (Pettersen et al., Anticancer Res., 6; 147-152, 1986).
We have compared the metabolism in rats of BG as well as of deuterated BG (BG-d1). In Table 5 the serum concentration of BG or BG-d1 is shown at various time points after a single iv injection of each drug, respectively.

NHIK 3025 cells [3] = assay: Protein synthesis rate ((3H)valine incorporation); format: cell-based, human; conditions: 3.2 mM
Source text: as §1, §2
The rate of protein synthesis was calculated as described previously (Ronning, O. W. et al., J. Cell Physiol., 107: 47-57, 1981). Briefly, cellular protein was labeled to saturation during a 2-day preincubation with (^14 C)valine of constant specific radioactivity (0.5 Ci/mol) prior to the experiment. This was achieved by using a high concentration of valine so that the dilution of (^14 C)valine by intracellular valine and by proteolytically generated valine will be negligible (Ronning, O. W., et al. Exp. Cell Res. 123: 63-72, 1979), thus keeping the specific radioactivity at a constant level. The rate of protein synthesis was calculated from the incorporation of (3H)valine of constant specific activity. The incorporation measurements were related to the total of (^14 C) radioactivity in protein at the beginning of the respective measurement periods and expressed as the percentage per hr (Ronning, O. W. et al, J. Cell, Physiol. 107: 47-57, 1981).
[…] The last measurements were done to test the reversibility of the drugs. Drug concentration: 3.2 mM.

NHIK 3025 cells [4] = conditions: Pettersen et al. 1983, cited from earlier work
[5] = BG or BG-d1 metabolites in blood samples after iv injection (HPLC peak height); format: in vivo, male Wistar rats; conditions: rat
Experimental: as §3
Measurement of BG or BG-d1 metabolites in blood samples (Table 6)
HPLC of blood samples was performed as indicated above. Relative amounts of BG- or BG-d1 -metabolite were determined by peak height analysis. The peak height from the electronic integrator (in microvolts) of samples taken 30 minutes after iv injection of BG, or 60 minutes after iv injection of BG-d1 were normalized to 1. All other metabolite peaks were compared with these values.
At the same time as BG or BG-d1 metabolism was being determined, a separate metabolite peak appeared in HPLC chromatograms. The increase in BG- and BG-d1 -metabolite and subsequent clearance was measured.

mucous membranes = conditions: pure form; cited from earlier work
NHIK 3025 cells [6] = assay: Duration of cell cycle-time of synchronized cells; format: cell-based, human; conditions: 8 hr treatment
Source text: as §1, §2
(§4) For detection of the drug effects on cell-cycle kinetics, the same methods were used as described previously (Lindmo, T., and Pettersen, E. O., Cell Tissue Kinet., 12: 43-57, 1979), (Pettersen, E. O. et al, Eur. J. Cancer Clin. Oncol., 19: 507-514; 1983), (Ronning, O.W. et al., J. Cell. Physiol., 109: 411-419, 1981). Briefly, the selected mitotic cells were seeded into 8 tissue culture flasks (25 sq cm) 5000 cells per flask. The cells divided within 1 hr and attached as doublets to the bottom of the flasks. […] Analyses of durations of mitosis were performed from these observations (Table 4).
This is shown by the data in Table 3, where we have used synchronized cells treated over an 8 hr period starting 2 hr after mitotic selection, i.e. when the cells were in early Gl.

NHIK 3025 cells [7] = conditions: previous studies; cited from earlier work
NHIK 3025 cells [8] = conditions: previous studies (Pettersen et al. 1983), cited from earlier work
NHIK 3025 cells [9] = assay: Duration of mitosis of synchronized cells; format: cell-based, human; conditions: 3.2 mM during mitosis
Source text: as §1, §2, §4
This effect is probably directly related to the aldehyde group (Pettersen et al. Cancer Res. 45: 2085-2091, 1985). If the deuterated aldehyde group induces different biological effects from the undeuterated one it is therefore good reason to expect this to be expressed as a difference in effect on cells in mitosis. In Table 4 results are shown on prolongation of mitosis of synchronized cells treated with benzaldehyde or deuterobenzaldehyde-d1 during mitosis. The numbers in the table represent the percentage of the cells having a duration of mitosis below 1 hr (which is normal for untreated cells) or above the number of hours indicated on top of each column.

NHIK 3025 cells [10] = conditions: Pettersen et al. 1983, cited from earlier work; remark: listed apart in the source
[11] = read-out: Cell survival of cells treated for 24 hr
[12] = read-out: Fraction of cells surviving 24 hr treatment

OC1O[C@@H]2COC(c3ccccc3)O[C@H]2[C@H](O)[C@H]1O (stereo partly drawn) [BG, 4,6-O-benzylidene-D-glucose]
Period over which compound is stable in vitro (Stability in vitro): at least 24 hr | viability at 6400 µM (NHIK 3025 cells [1]; [11]): 30 ± 5% | viability at 12800 µM (NHIK 3025 cells [1]; [11]): 0.78 ± 0.18% | half-life in vivo (in words) ([2]; in vivo): relatively short half-life in vivo | Amount of unmetabolized drug in blood samples ([2]; rat, iv, 60 minutes, N.F. = Not Found): N.F. | concentration at 0 h ([2]; serum, rat, iv, 0 minutes (estimated), read-out: Amount of unmetabolized drug in blood samples): 345 µM | concentration at 2 min ([2]; serum, rat, iv, 2 minutes, read-out: Amount of unmetabolized drug in blood samples): 230 ± 16 µM | concentration at 5 min ([2]; serum, rat, iv, 5 minutes, read-out: Amount of unmetabolized drug in blood samples): 110 ± 10 µM | concentration at 10 min ([2]; serum, rat, iv, 10 minutes, read-out: Amount of unmetabolized drug in blood samples): 96 ± 15 µM | concentration at 0.25 h ([2]; serum, rat, iv, 15 minutes, read-out: Amount of unmetabolized drug in blood samples): 66 ± 18 µM | concentration at 20 min ([2]; serum, rat, iv, 20 minutes, read-out: Amount of unmetabolized drug in blood samples): 48 ± 11 µM | concentration at 25 min ([2]; serum, rat, iv, 25 minutes, read-out: Amount of unmetabolized drug in blood samples): 40 ± 5 µM | concentration at 0.5 h ([2]; serum, rat, iv, 30 minutes, read-out: Amount of unmetabolized drug in blood samples): 33 ± 8 µM | half-life ([2]; serum, rat, iv, read-out: half-life in vivo): ~5 min | Protein synthesis (NHIK 3025 cells [3]; asynchronous cells, 3 hr treatment, pulse 0-1 hr, during treatment, Table 8, control 5.7 ± 0.5): 2.9 ± 0.7 %/hr | Protein synthesis (NHIK 3025 cells [3]; asynchronous cells, 3 hr treatment, pulse 2-3 hr, during treatment, Table 8, control 5.7 ± 0.5): 2.9 ± 0.1 %/hr | Protein synthesis (NHIK 3025 cells [3]; synchronized cells, 22 hr treatment, pulse 21-22 hr, during treatment, Table 8, control 5.3 ± 0.2): 4.8 ± 0.5 %/hr | Protein synthesis (NHIK 3025 cells [3]; synchronized cells, 22 hr treatment, pulse 23-24 hr, after treatment, Table 8, control 5.3 ± 0.2): 5.5 ± 0.1 %/hr | Protein synthesis inhibition (in words) (NHIK 3025 cells [4]): only protein synthesis inhibition is known to appear during treatment with BG | Relative amount of metabolite ([5]; 30 minutes after iv injection, BG sample normalized to 1): 1.00 | Relative amount of metabolite ([5]; 45 minutes after iv injection, maximum peak = 1): 0.927 ± 0.008

O=Cc1ccccc1 [Benzaldehyde]
Irritating effect on mucous membranes (mucous membranes): strongly irritating effect on mucous membranes | Prolongation (NHIK 3025 cells [6]; 2 mM, versus control 1): 7.9% | Duration of the part of the cell cycle starting 2 hr after selection (NHIK 3025 cells [6]; 2 mM, control 1 16.5): 17.8 | Prolongation (NHIK 3025 cells [6]; 2.5 mM, versus control 2): 63.7% | Duration of the part of the cell cycle starting 2 hr after selection (NHIK 3025 cells [6]; 2.5 mM, control 2 16.8): 27.5 | Inactivation of cells treated during mitosis (in words) (NHIK 3025 cells [7]): inactivated efficiently by benzaldehyde | Inhibition during mitosis (in words) (NHIK 3025 cells [8]): induces specific inhibition during mitosis | Inhibition during mitosis (in words) (NHIK 3025 cells [8]; listed as benzaldehyde): specific prolongation of mitosis | viability at 3200 µM (NHIK 3025 cells [1]; [12]): 64 ± 18% | viability at 12800 µM (NHIK 3025 cells [1]; [12]): 2.4 ± 0.8% | Percentage of cells with duration of mitosis >4 h (NHIK 3025 cells [9]): 49% | Percentage of cells with duration of mitosis >5 h (NHIK 3025 cells [9]): 35% | Percentage of cells with duration of mitosis >6 h (NHIK 3025 cells [9]): 21% | Percentage of cells with duration of mitosis >3 h (NHIK 3025 cells [9]; control 2%): 70% | Percentage of cells with duration of mitosis >2 h (NHIK 3025 cells [9]; control 4%): 87% | Percentage of cells with duration of mitosis >1 h (NHIK 3025 cells [9]; control 17%): 95% | Percentage of cells with duration of mitosis <1 h (NHIK 3025 cells [9]; control 83%): 5% | Cell cycle progression (in words) (NHIK 3025 cells [10]): inhibits cell cycle progression | Cell cycle progression (in words) (NHIK 3025 cells [10]; listed as benzaldehyde): cell-cycle progression is reduced | Protein synthesis (NHIK 3025 cells [3]; 4 hr treatment, pulse 0-1, during treatment, Table 2, control 6.8 ± 0.9): 3.7 ± 0.3 %/hr | Protein synthesis (NHIK 3025 cells [3]; 4 hr treatment, pulse 4-5, after treatment, Table 2, control 6.8 ± 0.9): 5.1 ± 0.3 %/hr | Protein synthesis (NHIK 3025 cells [3]; 4 hr treatment, pulse 5-6, after treatment, Table 2, control 6.8 ± 0.9): 6.7 ± 0.5 %/hr | Protein synthesis inhibition (in words) (NHIK 3025 cells [4]): inhibit protein sythesis in a reversible manner | Protein synthesis inhibition (in words) (NHIK 3025 cells [4]; listed as benzaldehyde): protein synthesis inhibition
